Data reported in US5760092A, “Allocolchinones and uses thereof” (Brandeis University, priority 1996, dated 1998).
Several values for one entry are separate records, joined by “and”; a condition that tells them apart may be missing. Equal values may be shown once. Read-outs that look alike come from different tables or passages of the source.

How the values were obtained:
[1] = system: MCF7/ADR-RES breast cancer cells; experiment: cells; assay type: cell-based
tubulin [2] = assay type: biochemical, calf
tubulin [3] = experiment: Binding to tubulin
[4] = system: HOP-62 non-small cell lung cancer cells
[5] = system: HOP-92 non-small cell lung cancer cells
[6] = system: OVCAR-3 ovarian cancer cells
[7] = system: OVCAR-8 ovarian cancer cells
[8] = system: SK-OV-3 ovarian cancer cells; conditions: log10 conc -6.0; 1 µM
A498 renal cancer cells [9] = conditions: log10 conc -6.0; 1 µM
[10] = system: CAKI-1 renal cancer cells
[11] = system: HS 578T breast cancer cells
[12] = system: HOP-62 non-small cell lung cancer cells; experiment: cells; conditions: Homo sapiens
[13] = system: HOP-92 non-small cell lung cancer cells; experiment: cells; conditions: Homo sapiens
SF-295 CNS cancer cells = experiment: cells; conditions: Homo sapiens
[14] = system: OVCAR-3 ovarian cancer cells; experiment: cells; conditions: Homo sapiens
A498 renal cancer cells [15] = experiment: cells; conditions: Homo sapiens
[16] = system: CAKI-1 renal cancer cells; experiment: cells; conditions: Homo sapiens
[17] = system: RXF-393 renal cancer cells; experiment: cells; conditions: Homo sapiens
[18] = system: HS 578T breast cancer cells; experiment: cells; conditions: Homo sapiens

## COc1cc2c(c(OC)c1OC)-c1ccc(C(C)=O)cc1C(NC(C)=O)CC2 (stereo not drawn)
[1]
  GI50: 0.023 µM
[1]; Homo sapiens, MCF7
  GI50: 0.0211 µM
[1]; Homo sapiens, MCF7, read-out: Percent Growth, log10 conc -4.0
  activity at 100 µM: -1%
[1]; Homo sapiens, MCF7, read-out: Percent Growth, log10 conc -5.0
  activity at 10 µM: -1%
[1]; Homo sapiens, MCF7, read-out: Percent Growth, log10 conc -6.0
  activity at 1 µM: 37%
[1]; Homo sapiens, MCF7, read-out: Percent Growth, log10 conc -8.0
  activity at 0.01 µM: 56%
[1]; Homo sapiens, MCF7, read-out: Percent Growth, log10 conc -9.0
  activity at 0.001 µM: 73%
[1]; Homo sapiens, MCF7, read-out: Percent Growth, log10 conc -10.0
  activity at 0.0001 µM: 91%
Tubulin [2]; drug to tubulin molar concentration ratio of about 0.030
  activity relative to colchicine (inhibition of microtubule assembly): about 20%
Tubulin [2]; in vitro
  inhibition of microtubule formation compared with colchicine: more active than colchicine
Tubulin [2]; in vitro, read-out: LC50 (inhibition of microtubule assembly in vitro)
  IC50: 0.3 µM
Tubulin [2]; increasing amounts of drug, tubulin 2.1×10^-5 M
  plateau turbidity: decrease in plateau turbidity
Tubulin [3]
  binding to tubulin: reversible
MOLT-4 leukemia cells; log10 conc -4.0, 100 µM
  Percent Growth: -5%
MOLT-4 leukemia cells; log10 conc -5.0
  Percent Growth: 5%
MOLT-4 leukemia cells; log10 conc -6.0, 1 µM
  Percent Growth: 5%
MOLT-4 leukemia cells; log10 conc -8.0
  Percent Growth: 34%
MOLT-4 leukemia cells; log10 conc -9.0, 0.001 µM
  Percent Growth: 32%
MOLT-4 leukemia cells; log10 conc -10.0, 0.0001 µM
  Percent Growth: 106%
[4]
  GI50: < 0.01 µM
[4]; log10 conc -6.0, 1 µM
  Percent Growth: 31%
[4]; log10 conc -7.0, 0.1 µM
  Percent Growth: 29%
[4]; log10 conc -8.0, 0.01 µM
  Percent Growth: 45%
[5]; log10 conc -6.0, 1 µM
  Percent Growth: 11%
[5]; log10 conc -7.0, 0.1 µM
  Percent Growth: 24% and 45%
[5]; log10 conc -8.0, 0.01 µM
  Percent Growth: 45% and 66%
SF-268 CNS cancer cells; log10 conc -4.0, 100 µM
  Percent Growth: 32%
SF-268 CNS cancer cells; log10 conc -5.0
  Percent Growth: 37%
SF-268 CNS cancer cells; log10 conc -6.0, 1 µM
  Percent Growth: 36% and 38%
SF-268 CNS cancer cells; log10 conc -7.0, 0.1 µM
  Percent Growth: 35% and 45%
SF-268 CNS cancer cells; log10 conc -9.0, 0.001 µM
  Percent Growth: 40%
SF-268 CNS cancer cells; log10 conc -10.0, 0.0001 µM
  Percent Growth: 92%
SF-539 CNS cancer cells; log10 conc -4.0, 100 µM
  Percent Growth: -27%
SF-539 CNS cancer cells; log10 conc -5.0
  Percent Growth: -31%
SF-539 CNS cancer cells; log10 conc -6.0, 1 µM
  Percent Growth: -24%
SF-539 CNS cancer cells; log10 conc -7.0, 0.1 µM
  Percent Growth: -24%
SF-539 CNS cancer cells; log10 conc -8.0
  Percent Growth: -16%
SF-539 CNS cancer cells; log10 conc -9.0, 0.001 µM
  Percent Growth: 19%
SF-539 CNS cancer cells; log10 conc -10.0, 0.0001 µM
  Percent Growth: 100%
SNB-19 CNS cancer cells; log10 conc -4.0, 100 µM
  Percent Growth: 6%
SNB-19 CNS cancer cells; log10 conc -5.0
  Percent Growth: 7%
SNB-19 CNS cancer cells; log10 conc -6.0, 1 µM
  Percent Growth: 36%
SNB-19 CNS cancer cells; log10 conc -8.0, 0.01 µM
  Percent Growth: 25% and 16%
SNB-19 CNS cancer cells; log10 conc -9.0, 0.001 µM
  Percent Growth: 63%
SNB-19 CNS cancer cells; log10 conc -10.0, 0.0001 µM
  Percent Growth: 99%
SNB-75 CNS cancer cells; log10 conc -4.0, 100 µM
  Percent Growth: 39%
SNB-75 CNS cancer cells; log10 conc -5.0
  Percent Growth: 43%
SNB-75 CNS cancer cells; log10 conc -6.0, 1 µM
  Percent Growth: 52% and 43%
SNB-75 CNS cancer cells; log10 conc -7.0, 0.1 µM
  Percent Growth: 46% and 50%
SNB-75 CNS cancer cells; log10 conc -8.0, 0.01 µM
  Percent Growth: 41% and 44%
SNB-75 CNS cancer cells; log10 conc -9.0, 0.001 µM
  Percent Growth: 17%
SNB-75 CNS cancer cells; log10 conc -10.0, 0.0001 µM
  Percent Growth: 96%
U251 CNS cancer cells; log10 conc -4.0, 100 µM
  Percent Growth: 4%
U251 CNS cancer cells; log10 conc -5.0
  Percent Growth: 3%
U251 CNS cancer cells; log10 conc -9.0, 0.001 µM
  Percent Growth: 23%
U251 CNS cancer cells; log10 conc -10.0, 0.0001 µM
  Percent Growth: 96%
[6]
  TGI: > 100 µM
[6]; log10 conc -6.0, 1 µM
  Percent Growth: 7%
[6]; log10 conc -7.0, 0.1 µM
  Percent Growth: 15%
[6]; log10 conc -8.0
  Percent Growth: 23%
[7]; log10 conc -4.0, 100 µM
  Percent Growth: -45%
[7]; log10 conc -5.0
  Percent Growth: -29%
[7]; log10 conc -6.0, 1 µM
  Percent Growth: 9%
[7]; log10 conc -9.0, 0.001 µM
  Percent Growth: 25%
[7]; log10 conc -10.0, 0.0001 µM
  Percent Growth: 96%
[8]
  Percent Growth: 10%
A498 renal cancer cells [9]
  Percent Growth: 25%
[10]
  TGI: > 100 µM
[11]; log10 conc -6.0, 1 µM
  Percent Growth: 25%
[11]; log10 conc -8.0, 0.01 µM
  Percent Growth: 24%
[12]; HOP-62
  GI50: 0.00768 µM
[12]; HOP-62, read-out: Percent Growth, log10 conc -4.0
  activity at 100 µM: 22%
[12]; HOP-62, read-out: Percent Growth, log10 conc -5.0
  activity at 10 µM: 20%
[12]; HOP-62, read-out: Percent Growth, log10 conc -6.0
  activity at 1 µM: 44%
[12]; HOP-62, read-out: Percent Growth, log10 conc -7.0
  activity at 0.1 µM: 46%
[12]; HOP-62, read-out: Percent Growth, log10 conc -8.0
  activity at 0.01 µM: 47%
[12]; HOP-62, read-out: Percent Growth, log10 conc -9.0
  activity at 0.001 µM: 77%
[12]; HOP-62, read-out: Percent Growth, log10 conc -10.0
  activity at 0.0001 µM: 101%
[13]; HOP-92
  GI50: 0.000618 µM
[13]; HOP-92, read-out: Percent Growth, log10 conc -4.0
  activity at 100 µM: 57%
[13]; HOP-92, read-out: Percent Growth, log10 conc -5.0
  activity at 10 µM: 53%
[13]; HOP-92, read-out: Percent Growth, log10 conc -9.0
  activity at 0.001 µM: 36%
[13]; HOP-92, read-out: Percent Growth, log10 conc -10.0
  activity at 0.0001 µM: 94%
SF-295 CNS cancer cells; SF-295, read-out: Percent Growth, log10 conc -4.0
  activity at 100 µM: -14%
SF-295 CNS cancer cells; SF-295, read-out: Percent Growth, log10 conc -5.0
  activity at 10 µM: -10%
SF-295 CNS cancer cells; SF-295, read-out: Percent Growth, log10 conc -8.0
  activity at 0.01 µM: 6%
SF-295 CNS cancer cells; SF-295, read-out: Percent Growth, log10 conc -9.0
  activity at 0.001 µM: 16%
SF-295 CNS cancer cells; SF-295, read-out: Percent Growth, log10 conc -10.0
  activity at 0.0001 µM: 104%
[14]; OVCAR-3, read-out: Percent Growth, log10 conc -4.0
  activity at 100 µM: 5%
[14]; OVCAR-3, read-out: Percent Growth, log10 conc -5.0
  activity at 10 µM: 5%
[14]; OVCAR-3, read-out: Percent Growth, log10 conc -9.0
  activity at 0.001 µM: -11%
[14]; OVCAR-3, read-out: Percent Growth, log10 conc -10.0
  activity at 0.0001 µM: 97%
A498 renal cancer cells [15]; A498, read-out: Percent Growth, log10 conc -4.0
  activity at 100 µM: 1%
A498 renal cancer cells [15]; A498, read-out: Percent Growth, log10 conc -5.0
  activity at 10 µM: 3%
A498 renal cancer cells [15]; A498, read-out: Percent Growth, log10 conc -9.0
  activity at 0.001 µM: 72%
A498 renal cancer cells [15]; A498, read-out: Percent Growth, log10 conc -10.0
  activity at 0.0001 µM: 77%
[16]; CAKI-1
  GI50: 0.0401 µM
[16]; CAKI-1, read-out: Percent Growth, log10 conc -4.0
  activity at 100 µM: 37%
[16]; CAKI-1, read-out: Percent Growth, log10 conc -5.0
  activity at 10 µM: 39%
[16]; CAKI-1, read-out: Percent Growth, log10 conc -6.0
  activity at 1 µM: 36%
[16]; CAKI-1, read-out: Percent Growth, log10 conc -7.0
  activity at 0.1 µM: 35%
[16]; CAKI-1, read-out: Percent Growth, log10 conc -8.0
  activity at 0.01 µM: 73%
[17]; RXF 393, read-out: LC50
  CC50: > 1 µM
[17]; RXF 393, read-out: Percent Growth, log10 conc -6.0
  activity at 1 µM: 61%
[17]; RXF 393, read-out: Percent Growth, log10 conc -7.0
  activity at 0.1 µM: 55%
[17]; RXF 393, read-out: Percent Growth, log10 conc -8.0
  activity at 0.01 µM: 35%
[17]; RXF 393, read-out: Percent Growth, log10 conc -9.0
  activity at 0.001 µM: 42%
[17]; RXF 393, read-out: Percent Growth, log10 conc -10.0
  activity at 0.0001 µM: 101%
[18]; read-out: Percent Growth, log10 conc -4.0
  activity at 100 µM: 16%
[18]; read-out: Percent Growth, log10 conc -5.0
  activity at 10 µM: 27%
[18]; read-out: Percent Growth, log10 conc -7.0
  activity at 0.1 µM: 38%
[18]; read-out: Percent Growth, log10 conc -8.0
  activity at 0.01 µM: 39%
[18]; read-out: Percent Growth, log10 conc -9.0
  activity at 0.001 µM: 27%
[18]; read-out: Percent Growth, log10 conc -10.0
  activity at 0.0001 µM: 103%
